Laboratory results published in EP2362225 (dated 2011).
Entries after “also recorded” stand apart in the source; their conditions may differ.

Columns and labels:
[1] = system: T2.27 20S proteasomes (immunoproteasomes); assay: 20S proteasomes purified from T2.27 cells in Hepes buffer; settings: human T2 cells transfected with murine LMP2 and LMP7, 37°C, up to 48 hours
[2] = system: 20S proteasomes of Lymphoblastoid cell Lines (LcL); assay: LcL 20S proteasomes in Hepes buffer (Hepes 20 mM, KCI 1 mM, MgCl 0.5 mM, DTT 1 mM, NaN3 1 mM, pH 7.3); settings: human, 37°C, up to 48 hours
[3] = system: T2 20S proteasomes (standard proteasome); assay: 20S proteasomes purified from T2 cells in Hepes buffer; settings: human, 37°C, up to 48 hours
[4] = system: proteasome
[5] = system: LcL 20S proteasomes; assay: 3 µg LcL 20S proteasomes in 100 µl buffer; gp10040-52 and its heavy analogue digested together; settings: human, up to 36 hours
[6] = system: 20S proteasomes of T2.27 cells (immunoproteasomes); assay: T2.27 20S proteasomes (immunoproteasomes) in Hepes buffer; settings: human T2 cells transfected with murine LMP2 and LMP7 subunits, 37°C, up to 48 hours
[7] = system: 20S proteasomes of T2 cells (standard proteasome); assay: T2 20S proteasomes (standard proteasome) in Hepes buffer; settings: human, 37°C, up to 48 hours

Substance	fragment found [1]	fragment found [2]	fragment found [3]	fragment found [4]	fragment found [5]	fragment found [6]	fragment found [7]
RTKAWNRQLYPEW	gp10040-42/47-52 [RTK][QLYPEW]; also recorded: gp10047-52/40-42 [QLYPEW][RTK]	gp10040-42/47-52 [RTK][QLYPEW]; also recorded: gp10047-52/40-42 [QLYPEW][RTK]	gp10047-52/40-42 [QLYPEW][RTK]	gp10040-42/47-52 [RTK][QLYPEW]	gp10040-042/47-52-α; also recorded: gp10047-52/40-42-α	[RTK][QLYPEW]; also recorded: [QLYPEW][RTK]	[RTK][QLYPEW]; also recorded: [QLYPEW][RTK]
RTK^+6AWNRQL^+1YPEW					gp10040-42/47-52-δ; also recorded: gp10047-52/40-42-δ		
VSRQLRTKAWNRQLYPEWTEAQR						[VSRQL][VSRQL] (gp10035-39/35-39); also recorded: [QLYPEWTEA][VSRQL] (gp10047-55/35-39)	[VSRQL][VSRQL] (gp10035-39/35-39); also recorded: [QLYPEWTEA][VSRQL] (gp10047-55/35-39)
